Experimental data taken from article PMC10330904 (Toxicology and applied pharmacology, 2023).
pIC50: −log10 of the molar value.

Key:
[1] = molecular target: Acetylcholinesterase (AChE) (with human microsomes); conditions: read-out: tox21-ms-ache-p2 (IC50); cited from earlier work
[2] = tested on: Acetylcholinesterase (AChE) (biochemical); conditions: cited from earlier work; for pIC50: read-out: tox21-ache-p5 (IC50)
[3] = tested on: cell viability counter screens

SMILES | pIC50 [1] | tox21-ache-p5 (IC50) [2] | pIC50 [2] | viability assay hit rate [3]
CCOP(=S)(Oc1ccc([N+](=O)[O-])cc1)c1ccccc1 (centres unmarked) | 5.70 | inactive | – | –
CCOP(=S)(OCC)SCn1nnc2ccccc2c1=O [Azinphos-ethyl] | 6.60 | – | 4.45 | –
CCOP(=S)(OCC)Oc1nc(Cl)c(Cl)cc1Cl [Chlorpyrifos] | 6.60 | – | 4.10 | –
CCOP(=S)(OCC)Oc1ccc2c(C)c(Cl)c(=O)oc2c1 [Coumaphos] | 5.97 | – | 4.27 | –
CCOP(=S)(OCC)SC(CCl)N1C(=O)c2ccccc2C1=O (centres unmarked) [Dialifor] | 5.85 | – | 4.20 | –
COP(N)(=S)Oc1ccccc1C(=O)OC(C)C (centres unmarked) [Isocarbophos] | 5.55 | inactive | – | –
CCOP(=S)(OCC)Oc1ccc([N+](=O)[O-])cc1 [Parathion] | 6.13 | – | 4.61 | –
CCOP(=S)(OCC)SCn1c(=O)oc2cc(Cl)ccc21 [Phosalone] | 5.23 | inactive | – | –
CCOP(=S)(OCC)O/N=C(\C#N)c1ccccc1 [Phoxim] | 5.78 | – | 4.25 | –
CCOP(=S)(OCC)Oc1cnc2ccccc2n1 [Quinalphos] | 6.00 | – | 4.10 | –
CCOP(=S)(OCC)SCSC(C)(C)C [Terbufos] | 4.32 | inactive | – | –
Oc1c(Cl)cc(Cl)cc1Sc1cc(Cl)cc(Cl)c1O [bithionol] | – | – | – | 98.78%
[H]/N=C(\N/C(=N/[H])NCCCCCCNC(=N)NC(=N)Nc1ccc(Cl)cc1)Nc1ccc(Cl)cc1 [chlorhexidine] | – | – | – | 97.56%
O=C1C(Cl)=C(Cl)C(=O)c2ccccc21 [dichlone] | – | – | – | 97.56%
Oc1c(Cl)cc(Cl)c(Cl)c1Cc1c(O)c(Cl)cc(Cl)c1Cl [hexachlorophene] | – | – | – | 97.56%
CC1=CC(=O)c2ccccc2C1=O [menadione] | – | – | – | 97.56%
Cc1cc(C(C)(C)CC(C)(C)C)ccc1OCCOCC[N+](C)(C)Cc1ccccc1.[Cl-] [methylbenzethonium chloride] | – | – | – | 97.56%
Oc1cc(Cl)ccc1Oc1ccc(Cl)cc1Cl [triclosan] | – | – | – | 97.56%
